The values below come from PMC11091976, “Shorter Peptide Nucleic Acid Probes Improve Affibody-Mediated Peptide Nucleic Acid-Based Pretargeting” (ACS Pharmacology & Translational Science, 2024).

Marks after values point to notes of the source that are not given here.

For data set [1] the following is noted: cited from earlier work. As for the experimental part: Table 4 ^177Lu-Labeling of PNA-Based Probes and In Vitro Stability | column: stability in PBS, 37 °C, 1 h; stability (×500 EDTA), 37 °C, 1 h
A further data set deals with Z-HP12. In words: SPR off-rate screening (single-cycle kinetics), immobilized Z-HP12. It is filed as binding. The following applies: primary probe HP12 (immobilized Z-HP12), 25 °C, PBS-T pH 7.4, 120 nM HP16/HP20 or 362 nM HP21/HP19, dissociation 150 min, 1:1 model, duplicates. As for the experimental part: The stability of new pretargeting probe combinations was assessed using SPR, and duplex melting temperatures were measured with UV–vis spectroscopy. In SPR, a high concentration of the secondary probe was injected over immobilized primary agents, and the dissociation of the hybridized complexes was monitored over 150 min (see Figures 3A, S22, and Table 2).
We utilized SPR on a Biacore T200 instrument (Cytiva) to examine how secondary PNA probes (6-mer HP19, 7-mer HP21, 8-mer HP20, and 9-mer HP16) bind to primary agents. These experiments were conducted using dextran-coated CM5 sensor chips and PBS-T buffer at pH 7.4. The ligands were immobilized through a standard EDC/NHS coupling method, and the chip surface was sealed with ethanolamine. A reference surface with no primary agent was also included.
For ranking the off-rate (kd) of the secondary probes, we employed single-cycle kinetics (SCK) at 25 °C with a flow rate of 50 μL/min. […] Secondary PNA probes were injected at various concentrations, and dissociation was monitored for 10,000 s. To regenerate the chip surface, we used two 30 s injections of 10 mM glycine-HCl, pH 1.5.
All SPR experiments were performed in duplicate, and data analysis was conducted using the Biacore T200 Evaluation software version 2.0 with a 1:1 binding model.
Figure S22: Representative SPR sensorgrams of the dissociation phase of HP16 (9-mer), HP20 (8-mer), HP21 (7-mer) and HP19 […]
After injection with the secondary probe
(120 nM of HP16 and HP20 or 362 nM of HP21 and HP19) the dissociation of the formed complex was followed for 150 minutes. All experiments were done in duplicates, and the data presented is double-referenced (reference channel and buffer injection are subtracted).
(1 picture or pasted object on this page, not shown here)

Another data set relates to HP12. The data set can be described thus: UV melting of PNA:PNA duplex with primary probe HP12. It is filed as physicochemical. The following applies: UV 260 nm, 20-95 °C at 1 °C/min, 5 μM each probe, 10 mM phosphate buffer, 10 mM KCl, pH 7.4. The protocol:
(§1) The melting temperatures of secondary probes after duplex formation with primary probes were also measured by monitoring the absorbance at 260 nm as a function of temperature (see Figure S23). All probe pairs had melting temperatures well above 37 °C (body temperature) and ranged from 51 °C for the HP6:HP19 pair with 6 complementary bases to 82 °C for the previously studied HP15:HP18 pair with 15 complementary bases (see Figure 3B and Table 2). […] This secondary structure is typically adopted by antiparallel and L-amino acid-modified PNA–PNA duplexes at neutral pH.[49]
(§2) Figure S23: Normalized temperature melting profiles from 20–95°C for different primary and secondary probe pairs. UV melting curves at 260 nm. (A) HP15 (15-mer) toward secondary 15-, 12- and 9-mers. (B) HP12 (12-mer) toward secondary 12-, 9-, 8-, 7- and 6-mers. (C) HP9 (9-mer) toward secondary 9-, 8-, 7- and 6-mers. (D) HP6 (6-mer) toward secondary 6-mer.
(§3) Concentrations of duplexes in A–D are 5 μM in 10 mM […] with 10 mM KCl at pH 7.4.
(§4) (also on this page, place not known: Fraction melted Fraction meltedFraction melted Fraction melted) […]
(§5) Supplementary Material and methods […]
(§6) Biophysical characterization of PNA:PNA duplexes using CD Spectroscopy and […]
(§7) Circular dichroism (CD) and UV melts of PNA:PNA duplexes were measured on a CD spectrometer (Applied Photophysics, Leatherhead, UK) with Peltier temperature control and an external temperature probe. RP-HPLC purified and lyophilized PNA probes were dissolved in 10 mM phosphate buffer with 10 mM KCl at pH 7.4. Samples contained both primary and complementary secondary PNA probes at a final concentration of 5 µM for each probe. These samples were initially heated to 95°C for five minutes, allowed to cool to room temperature, and then transferred to a quartz cuvette with a 1.0 cm path length. A temperature probe was inserted into the solution through the cuvette's rubber cap. […]
(§8) from 20°C to 95°C with a 1°C/min temperature gradient. Simultaneously, the UV absorbance at 260 nm was recorded as a function of temperature. Fraction melted data was calculated […]
(§9) Fraction melted = 1 ― UVds― UVss , where UVss and UVds are the UV absorbances at 95°C and 20°C, respectively. The melting temperature (Tm) was determined as the maximum of the first derivative of the melting curve and was computed using the Global 3 analysis software (Applied Photophysics, […]
(§10) CD spectra in the range of 200–300 nm were recorded for all hybridized PNA:PNA pairs at 20°C before and after the UV melting experiments. All CD spectra were baseline subtracted and presented as an average of five scans.

The test system of the next data set is HP9. The data set can be described thus: UV melting of PNA:PNA duplex with primary probe HP9. The class given is physicochemical. Conditions: UV 260 nm, 20-95 °C at 1 °C/min, 5 μM each probe, 10 mM phosphate buffer, 10 mM KCl, pH 7.4. The protocol:
as §1, §2, §3, §4, §5, §6, §7, §8, §9, §10

The target in the next data set is ZHER2-HP15. The following applies: SPR; cited from earlier work. As for the experimental part:
Our previously published preclinical therapy studies are based on PNA probes having 15 complementary nucleobases.[26],[27] Upon hybridization, these probes form an exceptionally stable duplex with a melting temperature (Tm) in solution of 86–88 °C. In a Biacore experiment, less than 5% of the hybridized secondary PNA detached during a 17 h long dissociation phase.[20] It is likely that shorter probe pairs than the original 15-mers provide enough binding affinity and specificity to achieve an efficient pretargeted radionuclide therapy in vivo.

Take `NC(=O)[C@H](Cc1ccc(O)cc1)NC(=O)[C@H](CCC(=O)O)NC(=O)[C@H](CCC(=O)O)NC(=O)CN(CCNC(=O)CN(CCNC(=O)CN(CCNC(=O)CN(CCNC(=O)CN(CCNC(=O)CN(CCNC(=O)CN(CCNC(=O)CN(CCNC(=O)CN(CCNC(=O)[C@H](CO)NC(=O)[C@H](CO)NC(=O)COCCOCCNC(=O)CN1CCN(CC(=O)O)CCN(CC(=O)O)CCN(CC(=O)O)CC1)C(=O)Cn1cnc2c(N)ncnc21)C(=O)Cn1cnc2c(N)ncnc21)C(=O)Cn1ccc(N)nc1=O)C(=O)Cn1cnc2c(N)ncnc21)C(=O)Cn1ccc(N)nc1=O)C(=O)Cn1ccc(N)nc1=O)C(=O)Cn1cnc2c(N)ncnc21)C(=O)Cn1cnc2c(=O)[nH]c(N)nc21)C(=O)Cn1cnc2c(=O)[nH]c(N)nc21` [[^177Lu]Lu-HP16, metal not drawn]: in data set [1], the “stability (×500 EDTA), 37 °C, 1 h” value is 100 ± 0 ^a and the “stability in PBS, 37 °C, 1 h” value is reported as 100 ± 0 ^a.

For orientation: Tm means the temperature at which the thermal transition is half complete. For orientation: Kd means the free concentration of one partner at which half of the binding sites on the other are occupied at equilibrium, for simple one-to-one binding. Take “DOTA-AEEA-SS-aacaccagg-EEY-NH2 [HP16, 9-mer secondary PNA probe with DOTA]”: the kd at Z-HP12 is 1.3 × 10^–5 s^–1; on ZHER2-HP15, 1.2 × 10^–5 s^–1. The Tm was 68 °C in the data set on HP12 and 65 °C in the data set on HP9. On ZHER2-HP15, the Kd is 0.28 nM.
